Reference: patent US20040049072A1, “RXR modulators with improved pharmacologic profile” (priority 1999, published 2004)
pIC50, pKi: −log10 of the molar value. “Also recorded” adds a separate entry of the source. Like-named read-outs stand apart in the source and are kept apart here.

Columns and labels:
db/db mouse = db/db mouse study (rodent model of Type II diabetes)
RXRα = biological target: T1, RXRα (Homo sapiens, UniProt P19793); test: RXRα binding (competition with tritiated LGD1069)
T1 sequence (P19793 1-462): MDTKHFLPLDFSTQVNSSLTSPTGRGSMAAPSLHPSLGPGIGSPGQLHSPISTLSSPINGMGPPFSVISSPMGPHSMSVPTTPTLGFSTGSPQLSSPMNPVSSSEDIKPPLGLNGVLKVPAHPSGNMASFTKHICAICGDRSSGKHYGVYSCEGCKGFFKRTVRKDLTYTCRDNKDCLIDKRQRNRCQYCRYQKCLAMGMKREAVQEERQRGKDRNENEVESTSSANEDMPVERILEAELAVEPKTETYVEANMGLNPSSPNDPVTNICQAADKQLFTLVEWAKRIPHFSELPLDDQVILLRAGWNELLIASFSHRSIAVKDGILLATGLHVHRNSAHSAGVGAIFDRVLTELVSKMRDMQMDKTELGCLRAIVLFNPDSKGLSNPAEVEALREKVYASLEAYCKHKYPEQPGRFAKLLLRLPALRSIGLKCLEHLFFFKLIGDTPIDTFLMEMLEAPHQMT
Procedure, shortened: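 Non-specific binding was defined with 500 nM unlabelled ligand. Bound and free ligand were separated, and bound radioligand was counted by liquid scintillation of the supernatant or hydroxylapatite pellet. IC50 came from a log-logit plot after non-specific correction, and Ki from Cheng-Prusoff using labelled-ligand concentration and Kd.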

RXRα homodimer (RXR:RXR) = biological target: T2, RXRα homodimer (RXR:RXR) (Homo sapiens, UniProt P19793); test: RXR homodimer co-transfection assay in CV-1 cells; format: cell-based
T2 sequence (P19793 1-462): T1 sequence (P19793 1-462)

RXRα:RAR heterodimer = biological target: T3, RXRα:RAR heterodimer (Homo sapiens, UniProt P19793); test: RXR:RAR heterodimer co-transfection assay in CV-1 cells; format: cell-based; conditions: for Emax: CV-1
T3 construct: expressed in transfected cells; host or cells: CV-1 cells
T3 sequence (P19793 1-462): T1 sequence (P19793 1-462)
Procedure, shortened: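 Cells co-transfected with the heterodimer were given compound at 10^−10 to 10^−5 M. Agonist efficacy was the maximum response over the dose–response curve relative to the reference agonist's maximum. Antagonist efficacy was expressed as % maximal inhibition.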

[1] = rodent models of Type II Diabetes

Compound: CCCCCCCOc1c(/C(C)=C/C=C/C(C)=C/C(=O)O)cc(C(C)(C)C)cc1C(C)(C)C [Compound L5]
- db/db mouse Glu. (D 14) (db/db mouse; plasma glucose, % correction relative to lean values, day 14, 100 mg/kg daily oral gavage): 0%
- effect on the thyroid hormone axis (db/db mouse; [1]): no effect
- effect on triglycerides (db/db mouse; [1]): no effect
- insulin sensitizing activity / effect on glucose (db/db mouse; [1]): no effect
- pKi (RXRα; Table 3, mean of n > 3, read-out: RXRα Binding Ki): 9.22
- pKi (RXRα; from IC50 by Cheng-Prussof equation, tritiated LGD1069, read-out: Bind RXRα Ki): 9.22
- RXRα Homodimer Cotransfection Assay Agonist Efficacy (%) (RXRα homodimer (RXR:RXR); Table 3 c2, mean of n > 3): 0%
- RXRα Homodimer Cotransfection Assay Agonist Efficacy (%) (RXRα homodimer (RXR:RXR); Table 3 c4, in presence of 3.2×10^−8 M LGD1069): 94%
- activity on the RXR:RXR homodimer (RXRα homodimer (RXR:RXR); cotransfection assay): full antagonists; also recorded: highly efficacious and potent antagonist activity with little or no agonist activity
- pIC50 (RXRα homodimer (RXR:RXR); in presence of LGD1069, not calculated if efficacy <10%, read-out: RXRα Homodimer Cotransfection Assay Antagonist IC50): 8.00
- RXR:RXR CV-1 (%) Antag. (RXRα homodimer (RXR:RXR); maximal repression (100%) in presence of 32 nM LGD1069): 94%
- RXR:RXR CV-1 (%) Ag. (RXRα homodimer (RXR:RXR); maximal response relative to ATRA): 0%
- Emax (RXRα:RAR heterodimer; read-out: RXR:RAR CV-1 (%) Ag.): 5%
- Emax (RXRα:RAR heterodimer; read-out: RXRα:RAR Heterodimer Cotransfection Assay Agonist Efficacy (%)): 5%
- antagonist activity on the RXR:RAR heterodimer (RXRα:RAR heterodimer; antagonist assay): significant RXR:RAR antagonist activity
- agonist activity on the RXR:RAR heterodimer (RXRα:RAR heterodimer; compound alone): not active as RXR:RAR agonists
- RXR:RAR CV-1 (%) Antag. (RXRα:RAR heterodimer; maximal repression (100%) in presence of 10 nM TTNPB): 68%
- RXRα:RAR Heterodimer Cotransfection Assay Antagonist Efficacy (%) (RXRα:RAR heterodimer; relative to maximal repression (100%) in presence of 10 nM TTNPB): 68%
